Data on 7 molecules can be found in ChEMBL document CHEMBL1150826, “Antibacterial diterpenes from the roots of Salvia blepharochlaena” (2001).

One test concerns Pseudomonas aeruginosa. Briefly: Antimicrobial activity against Pseudomonas aeruginosa by disc-diffusion method. In kind it is functional, organism-based. (In agar diffusion tests the substance spreads into inoculated agar from a disc or well.)
In test [1] the test system is Bacillus subtilis. Briefly: Antimicrobial activity against Bacillus subtilis ATCC 6633 by disc-diffusion method. In kind it is functional.
Test [2] relates to Staphylococcus aureus. Briefly: Antimicrobial activity against Staphylococcus aureus ATCC 6538 by tube dilution method. In kind it is functional.
The test system of test [3] is Enterococcus faecalis. Briefly: Antimicrobial activity against Enterococcus faecalis ATCC 29212 by disc-diffusion method. In kind it is functional.
For another test, the system named is Escherichia coli. Briefly: Antimicrobial activity against Escherichia coli by disc-diffusion method. It counts as functional, organism-based.
In test [4] the test system is Staphylococcus epidermidis. The test can be described thus: Antimicrobial activity against Staphylococcus epidermidis ATCC 12228 by tube dilution method. In kind it is functional.
For test [5], the system named is Bacillus subtilis. Briefly: Antimicrobial activity against Bacillus subtilis ATCC 6633 by tube dilution method. It counts as functional.
Test [6] relates to Staphylococcus epidermidis. Briefly: Antimicrobial activity against Staphylococcus epidermidis ATCC 12228 by disc-diffusion method. In kind it is functional.
The next test concerns Candida albicans. Briefly: Antimicrobial activity against Candida albicans by disc-diffusion method. It counts as functional, organism-based.
The next test has as its system Proteus mirabilis. The test can be described thus: Antimicrobial activity against Proteus mirabilis by disc-diffusion method. It counts as functional, organism-based.
In test [7] the test system is Enterococcus faecalis. Briefly: Antimicrobial activity against Enterococcus faecalis ATCC 29212 by tube dilution method. In kind it is functional.
In test [8] the test system is Staphylococcus aureus. The test can be described thus: Antimicrobial activity against Staphylococcus aureus ATCC 6538 by disc-diffusion method. In kind it is functional.
Another test concerns Klebsiella pneumoniae. The test can be described thus: Antimicrobial activity against Klebsiella pneumoniae by disc-diffusion method. It counts as functional, organism-based.
Test [9] deals with Mycobacterium tuberculosis. The test can be described thus: Antimycobacterial activity against Mycobacterium tuberculosis by broth microdilution method. In kind it is functional, organism-based. In general terms: Broth dilution looks for growth in wells or tubes with falling amounts of substance.

In brackets after ≈: the same amount, converted by molar mass. Activity calls are given as the source filed them.

Regarding `CC(C)C1=C(O)C(=O)C2=C(C1=O)[C@H](O)C[C@H]1C(C)(C)CCC[C@]21C` [HORMINONE], the “inhibition zone (IZ)” value in the test with Pseudomonas aeruginosa, with Escherichia coli, in the test with Candida albicans, with Proteus mirabilis and in the test with Klebsiella pneumoniae was “inactive” each time. Also, the “inhibition zone (IZ)” value (in the test on Bacillus subtilis [1]; in the test with Enterococcus faecalis [3]; in test [6]; in the test on Staphylococcus aureus [8]) was greater than 7 mm in each case. For the same molecule, the MIC (commonly the smallest concentration in the dilution series that meets the test's criterion for growth inhibition) was 6.5 µg/mL (≈ 19.6 µM) with Staphylococcus aureus [2], 1.5 µg/mL (≈ 4.51 µM) in test [4], 1.5 µg/mL (≈ 4.51 µM) against Bacillus subtilis [5] and 14 µg/mL (≈ 42.1 µM) against Enterococcus faecalis [7].

On to `COc1cc2c3c(ccc2c(C)c1C)C=C(C(C)C)C(=O)C3=O`, for which, in test [9], the outcome was Active.

Consider `COc1cc2c(cc1C(C)C)CC[C@H]1C(C)(C)CCC[C@]21C(=O)O`, for which the “inhibition zone (IZ)” value (in the test with Pseudomonas aeruginosa; with Enterococcus faecalis [3]; with Escherichia coli; in [6]; in the test on Candida albicans; in the test on Proteus mirabilis) was “inactive” throughout. The “inhibition zone (IZ)” value in the test on Staphylococcus aureus [8] and with Klebsiella pneumoniae was “inactive” in each case. Moreover, in the test on Bacillus subtilis [1], the “inhibition zone (IZ)” value is greater than 7 mm. Further, the MIC in the test with Bacillus subtilis [5] amounted to 6.5 µg/mL (≈ 19.7 µM).

For the molecule `Cc1c(O)cc2c3c(ccc2c1C)C=C(C(C)C)C(=O)C3=O`, the result in test [9] was Active.

On to `CC(=O)O[C@@H]1C[C@H]2C(C)(C)CCC[C@]2(C)C2=C1C(=O)C(C(C)C)=C(O)C2=O`, for which the “inhibition zone (IZ)” value in the test on Pseudomonas aeruginosa, with Enterococcus faecalis [3], with Escherichia coli, with Candida albicans, with Proteus mirabilis and in the test with Klebsiella pneumoniae was “inactive” in each case. Moreover, the “inhibition zone (IZ)” value (in the test on Bacillus subtilis [1]; in test [6]; with Staphylococcus aureus [8]) was greater than 7 mm in each case. In addition, the MIC turned out to be 10 µg/mL (≈ 26.7 µM) in the test with Staphylococcus aureus [2], 6 µg/mL (≈ 16 µM) in [4] and 3 µg/mL (≈ 8.01 µM) against Bacillus subtilis [5].

For the molecule `COc1cc2c(ccc3c(C)c(C)ccc32)cc1C(C)C`, the outcome in test [9] was Active.

For the molecule `CC(C)c1cc2c(cc1O)[C@@]1(C)CCCC(C)(C)[C@@H]1CC2` [FERRUGINOL], the “inhibition zone (IZ)” value (with Bacillus subtilis [1]; in test [6]; with Staphylococcus aureus [8]) was greater than 7 mm in each case. In addition, the MIC (against Staphylococcus aureus [2]; in test [4]; in the test with Bacillus subtilis [5]) was greater than 250 µg/mL in each case.
